Columns and labels:
[1] = target: T1, human androgen receptor (hAR) (Homo sapiens, UniProt P10275); assay: transactivative androgen agonistic activity, CHO cells transfected with hAR, MMTV-luciferase; type: cell-based; set-up: Androgenic Activity (%): concentration or dose not given beside the values; details: for Androgenic Activity (%): compared with 5α-dihydrotestosterone, CHO-hAR, 16 h, 37° C.
T1 construct: expressed in transfected cells; host or cells: Chinese hamster ovary cells (CHO)
T1 sequence (P10275 1-920): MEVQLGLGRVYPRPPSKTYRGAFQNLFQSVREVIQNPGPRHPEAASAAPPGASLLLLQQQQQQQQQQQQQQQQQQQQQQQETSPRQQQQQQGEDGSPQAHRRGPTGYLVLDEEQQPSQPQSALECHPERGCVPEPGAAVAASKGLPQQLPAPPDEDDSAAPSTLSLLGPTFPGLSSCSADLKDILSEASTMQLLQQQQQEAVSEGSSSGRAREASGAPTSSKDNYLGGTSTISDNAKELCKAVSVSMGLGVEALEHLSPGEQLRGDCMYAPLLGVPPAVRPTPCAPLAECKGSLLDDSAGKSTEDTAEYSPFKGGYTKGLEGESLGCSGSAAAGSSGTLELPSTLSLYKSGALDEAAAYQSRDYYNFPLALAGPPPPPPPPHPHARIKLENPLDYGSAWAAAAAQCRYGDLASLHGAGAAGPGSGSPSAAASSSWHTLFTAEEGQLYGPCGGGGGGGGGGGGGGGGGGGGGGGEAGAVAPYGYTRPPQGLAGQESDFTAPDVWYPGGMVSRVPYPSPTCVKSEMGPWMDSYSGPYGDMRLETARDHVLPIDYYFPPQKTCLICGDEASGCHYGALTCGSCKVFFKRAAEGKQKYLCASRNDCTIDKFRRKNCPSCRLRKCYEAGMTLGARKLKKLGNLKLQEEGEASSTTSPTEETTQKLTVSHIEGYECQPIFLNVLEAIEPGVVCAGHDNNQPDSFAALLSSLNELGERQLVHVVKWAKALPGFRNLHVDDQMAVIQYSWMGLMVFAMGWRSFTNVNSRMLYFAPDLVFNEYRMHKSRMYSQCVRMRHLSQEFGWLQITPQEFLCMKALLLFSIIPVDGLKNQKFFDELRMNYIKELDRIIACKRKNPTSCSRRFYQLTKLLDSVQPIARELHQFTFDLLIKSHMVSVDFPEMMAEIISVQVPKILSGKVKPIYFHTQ
Protocol: (§1) The transactivative androgen agonistic activity of the compounds of the invention was measured in Chinese hamster ovary cells (CHO) transfected with the human androgen receptor (hAR), in combination with a mouse mammary tumor virus (MMTV), and luciferase receptor gene (incubation time 16 h, temperature 37° C.) and compared with the activity of 5α-dihydrotestosterone [according to the procedure described by Schoonen, W. G. E. J. et aL., Analyt. Biochem. 261, 222-224 (1998)].

[2] = target: T2, human progesterone receptor B (hPRB) (Homo sapiens, UniProt P06401); assay: transactivative progestagenic agonistic activity, CHO cells transfected with hPRB, MMTV-luciferase; type: cell-based; set-up: Progestational Activity (%): concentration or dose not given beside the values; details: for Progestational Activity (%): compared with (16α)-16-ethyl-21-hydroxy-19-norpregn-4ene-3,20-dione, CHO-hPRB, 16 h, 37° C.; for progestagenic activity (in words): statement in the introduction, test not named
T2 construct: expressed in transfected cells; host or cells: Chinese hamster ovary cells (CHO)
T2 sequence (P06401 1-933): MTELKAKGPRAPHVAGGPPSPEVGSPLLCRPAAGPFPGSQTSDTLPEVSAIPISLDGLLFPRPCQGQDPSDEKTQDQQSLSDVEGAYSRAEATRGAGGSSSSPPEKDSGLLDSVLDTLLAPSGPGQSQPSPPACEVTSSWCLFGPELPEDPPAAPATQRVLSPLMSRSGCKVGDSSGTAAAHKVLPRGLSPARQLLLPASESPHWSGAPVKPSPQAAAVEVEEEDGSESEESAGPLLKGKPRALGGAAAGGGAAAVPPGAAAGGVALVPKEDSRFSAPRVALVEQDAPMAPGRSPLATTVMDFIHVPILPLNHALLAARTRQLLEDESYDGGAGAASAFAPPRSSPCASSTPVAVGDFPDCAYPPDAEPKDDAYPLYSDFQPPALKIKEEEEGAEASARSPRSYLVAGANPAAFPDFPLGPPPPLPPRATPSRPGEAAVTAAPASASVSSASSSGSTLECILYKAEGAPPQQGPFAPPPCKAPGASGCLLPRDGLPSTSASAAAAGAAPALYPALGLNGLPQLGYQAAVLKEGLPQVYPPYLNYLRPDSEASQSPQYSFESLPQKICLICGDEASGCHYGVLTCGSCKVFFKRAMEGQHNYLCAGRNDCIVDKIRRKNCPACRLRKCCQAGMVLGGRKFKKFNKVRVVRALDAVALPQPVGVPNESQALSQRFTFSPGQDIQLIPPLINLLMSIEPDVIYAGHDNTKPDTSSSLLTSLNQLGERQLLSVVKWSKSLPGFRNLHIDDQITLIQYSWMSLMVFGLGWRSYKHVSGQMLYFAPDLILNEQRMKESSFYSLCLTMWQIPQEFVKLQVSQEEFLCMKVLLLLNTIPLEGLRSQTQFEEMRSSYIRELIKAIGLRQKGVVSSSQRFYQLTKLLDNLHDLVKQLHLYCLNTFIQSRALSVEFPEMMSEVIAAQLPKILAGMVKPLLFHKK
Protocol: as §1, with “transactivative progestagenic” for “transactivative androgen”, “human progesterone” for “human androgen”, “receptor B (hPRB),” for “receptor (hAR),”, “of (16α)-16-ethyl-21-hydroxy-19-norpregn-4ene-3,20-dione” for “of 5α-dihydrotestosterone”, “et al.,” for “et aL.,”

[3] = tested on: serum LH; assay: LH suppression assay in mature male castrated rats, p.o.; type: in vivo, rat; details: for LH-Suppression MAD po: minimal active dose suppressing serum LH for 65%, castrated male rats, p.o. 4 days daily; for oral activity (in words): statement in the introduction, test not named
Protocol: The in vivo potency of the compounds of the invention was determined in a mature male castrated rat model.
In this model serum LH is high (about 20× fold higher than with intact rats, due to the absence of the negative feedback of testicular testosterone). These rats are p.o. treated for 4 days daily with a given compound of the invention in a suspension fluid of arachis oil or arachis oil +5 or 10% ethanol. Before dosing and 3 hours after the last oral dose blood is collected via tail vein and in the serum LH is determined. Potency (p.o.) of the compounds of the invention (minimal active dose, MAD) is expressed as the amount (mg/kg) of a compound of the invention which suppresses serum LH for 65% (with a 95% confidence interval).
The rat LH Time-Resolved Immuno Fluorometric Assay (TR-IFMA) has been developed in house using home made reagents, a monoclonal catching antibody directed against the β-subunit of human chorion gonadotrophin (hCG, which cross reacts with rat β-subunit) and a biotin labelled detecting antibody (rabbit polydonal antibody directed against the alfa-subunit of recombinant rat LH). Recombinant rat LH was prepared according to known methods, e.g., the method described by Hakola et aL., Molecular & Cellular Endocrinology (1997), 128, 47-56. In this two-site-IFMA, only intact rat LH is determined by a final incubation with streptavidin-europium. The detection in the IFMA is based on fluorescence of the lanthanide europium during a relative long excitation period. The concentration range of rat LH standard is 0.001-10 ng/ml, for optimal accuracy measurements of serum LH serum samples were diluted 8-times with assay buffer (J. I. van Casteren et al., Biol. Reprod. (2000), 62, 886-894).

[4] = Anti-osteoporosis test in mature male castrated rats (6 weeks treatment); type: in vivo, rat; details: for Mean proportional difference in bone density: placebo intact 100%, placebo orx 0%; for BMD (gmean ± sem): orx male rats, trabecular BMD of femur
Protocol: In this test the oral efficacy of a compound of the invention for the prevention of castration-induced trabecular bone mineral density (BMD) loss in male rats was evaluated.
Mature male Wistar rats (350-400 g) were used. Orchidectomy (orx) or sham operation was performed under isoflurane anaesthesia. After recovery of anaesthesia, within 24 hours, rats were treated once daily for 6 weeks p.o. with different doses of the compounds of the invention or vehicle only (placebo intact, placebo orx) with a volume of 1 ml/kg (n=5). One day after the last administration autopsy is performed and the right femur is dissected out. Trabecular bone mineral density of the metaphysal part of the femur was measured with a pQCT (peripheral Quantitative Computed Tomography machine; XCT 960A, Stratec, Birkenfeld, Germany).

[5] = prior art statement; cited from earlier work
[6] = J. Seaman, Toxicologic Pathology (1985); cited from earlier work

SMILES | Androgenic Activity (%) [1] [%] | Progestational Activity (%) [2] [%] | LH-Suppression MAD po [3] [mg/kg] | oral activity (in words) [3] | further results
CC1(O)CCCC2C3CCC4=CC(=O)CCC4C3CCC21C [Reference compound A, (17aβ)-17a-Hydroxy-17a-methyl-D-homoestr-4-en-3-one] | 71.6 | 98.0 | >30 | low activity upon oral administration | progestagenic activity (in words) [2]: progestagenic activity; Mean proportional difference in bone density ([4]; 16 mg/kg p.o. 6 weeks): 28%; BMD (gmean ± sem) ([4]; 16 mg/kg p.o. once daily 6 weeks): 133 ± 20; prevention of trabecular bone mineral density (BMD) loss (in words) ([4]; statement in the introduction): unable to prevent trabecular bone mineral density (BMD) loss
CCC1(O)CCCC2C3CCC4=CC(=O)CCC4C3CCC21CC [(17aβ)13,17a-diethyl-17a-hydroxy-D-homogon-4-en-3-one] |  |  |  | not orally active | 
CCC12CCC3C4CCC(=O)C=C4CCC3C1CCCC2(C)O [(17aβ)-13-ethyl-17a-hydroxy-17a-methyl-D-homogon-4-en-3-one] |  |  |  | not orally active | 
CC1CC2=CC(=O)CCC2C2CCC3(C)C(O)CCCC3C12 [Reference compound B, (7α,17aβ)-17a-Hydroxy-7-methyl-D-homoestr-4-en-3-one] | 25.3 | 10.6 | >30 | not orally active | androgenic activity (in words) ([1]; statement in the introduction, test not named): mixed androgenic and progestagenic profile; progestagenic activity (in words) [2]: mixed androgenic and progestagenic profile
CC1CC2=CC(=O)CCC2C2CCC3(C)C(CCCC3(C)O)C12 [Cpd of Example 1, (7α,17aβ)-17a-hydroxy-7,17a-dimethyl-D-homoestr4-en-3-one] | 42.9 | 53.3 | 8.5 |  | Mean proportional difference in bone density ([4]; 8 mg/kg p.o. 6 weeks): 133%; BMD (gmean ± sem) ([4]; 8 mg/kg p.o. once daily 6 weeks): 255 ± 22
C[C@@H]1CC2=CC(=O)CC[C@@H]2[C@H]2CC[C@@]3(C)[C@@H](CC[C@]3(C)O)[C@@H]21 [Reference compound C, (7α,17β)-17-Hydroxy-7,17-dimethylestr-4-en-3-one] | 220 | 45 | 1.0 |  | oral activity (in words) [5]: orally active; liver toxicity (in words) [6]: severe liver toxicity
CCC12CCC3C4CCC(=O)C=C4CCC3C1CCCC2O [(17aβ)-13-ethyl-17a-hydroxy-D-homogon4-en-3-one] |  |  |  | not orally active | 
CCC1(O)CCCC2C3C(C)CC4=CC(=O)CCC4C3CCC21C [Cpd of Example 2, (7α,17aβ)-17aethyl-17a-hydroxy-7-methyl-D-homoestr-4en-3-one] | 9.9 | 29.7 | 10 |  | 
